Reference: patent US8597922B2, “Methods and compositions for producing olefins” (LS9, Inc., priority 2007, dated 2013)

How the values were obtained:
[1] = system: ATCC 8456 cell free extract; test: Conversion of free fatty acids into α-olefins by ATCC 8456 cell free extract; type: biochemical, Jeotgalicoccus sp. ATCC 8456; details: for α-olefin formed from the fatty acid by cell free extract: 1 mM free fatty acid salt, room temperature, 3 h
Procedure: A cell free extract of ATCC 8456 was used to convert free fatty acids into α-olefins. The cell free extract was generated using the following procedure: ATCC 8456 cells were grown in TSBYE medium (3% Tryptic Soy Broth+0.5% Yeast Extract) at 30° C. for 24 h with shaking. The cells were then pelleted from the culture by centrifuging at 3,700 rpm for 20 min. The cell pellet was then resuspended in 50 mM Tris buffer pH 7.5 with 0.1 M NaCl and 2.0 mM dithiothreitol to a concentration of 0.1 g/mL cells. To this cell slurry, 200 units/mL of lysostaphin (Sigma) were added on ice. The cell lysis reaction was allowed to proceed for 30 min. The cells were then sonicated at 12 W on ice for three cycles of 1.5 sec of sonication followed by 1.5 sec of rest. Sonication lasted for a total of 9 sec. This procedure was repeated 5 times with a 1 min interval between each sonication cycle. The lysed cells were then centrifuged at 12,000 rpm for 10 min to pellet the cell debris. The supernatant (i.e., cell free extract) was then removed and used for the conversion of free fatty acids to α-olefins.
First, a 5% stock solution of sodium or potassium stearate was made in 1% Tergitol solution (Sigma, St. Louis, Mo.). Next, 6 μL of the stock solution was added to 1 mL of the cell free extract at room temperature to obtain a final concentration of 1 mM free fatty acid salt. The reaction was conducted at room temperature for 3 h. The α-olefins were recovered by adding 200 μL of ethyl acetate to the mixture, vortexing briefly, centrifuging briefly, and then removing the organic phase. The α-olefins were detected using GC/MS.
In sample 1 (TIC1; black line in FIG. 5), no stearic acid was added to the cell free extract. In sample 2 (TIC3; blue line in FIG. 5), the cell free extract was replaced with 50 mM Tris pH 7.5 buffer with 0.1 M sodium chloride to which stearic acid was added. In sample 3 (TICS; red line in FIG. 5), stearic acid was added to the cell free extract. The peak at 7.62 min had the same retention time and the same mass spectra as a 1-heptadecene standard (Sigma). When eicosanoic acid was added under similar conditions, 1-nonadecene was formed.
When the cell free extract was supplemented with several co-factors in 1 mM concentrations, no increase in α-olefin synthesis was observed. The co-factors examined were NAD+, NADP+, NADH, NADPH, FADH2, SAM, ATP, and CoA. In addition, Mg^2+ was examined at a 10 mM concentration. The co-factor requirement was also tested by dialyzing the cell free extract with a 10 kDa cut-off membrane for 1.5 h in a volume 200-fold greater than the cell extract volume using a dialysis buffer: 50 mM Tris, pH 7.5 with 0.1 M sodium chloride. No decrease in α-olefin synthesis was observed after dialysis. Additionally, no decrease in α-olefin synthesis was observed when 10 mM EDTA pH 7.5 was added to the reaction mixture.

ORF880 = test: In vitro reaction rates of purified ORF880 with different fatty acid substrates; type: biochemical, Jeotgalicoccus sp. ATCC8456; details: 1.0 μM ORF880, 200 μM fatty acid salt, pH 7.2, room temperature, between 20 min and 47 min
Procedure: The genomic DNA encoding Jeotgalicoccus sp. ATCC8456_orf880 was cloned into the NdeI and XhoI sites of vector pET15b (Novagen) under the control of the T7 promoter for expression in and purification from E. coli. This plasmid expressed an N-terminal His-tagged version of 8456_orf880.
An E. coli BL21 strain (DE3) (Invitrogen) was transformed with pET15b-orf880 using routine chemical transformation techniques. Protein expression was carried out by first inoculating a colony of the E. coli strain in 5 mL of LB media supplemented with 100 mg/L of carbenecillin and shaken overnight at 37° C. to produce a starter culture. This starter culture was used to inoculate 1 L of LB media supplemented with 100 mg/L of carbenecillin. The culture was shaken at 37° C. until an OD600 value of 0.6 was reached. The culture was placed on ice for 10 min before IPTG was added to a final concentration of 250 μM. The culture was then shaken at 18° C. for approximately 18 h. The culture was then centrifuged at 3,700 rpm for 20 min at 4° C. The pellet was then resuspended in 30 mL of buffer containing 100 mM sodium phosphate buffer at pH 7.2 supplemented with Bacterial ProteaseArrest (GBiosciences). The cells were then sonicated at 12 W on ice for 9 sec with 1.5 sec of sonication followed by 1.5 sec of rest. This procedure was repeated 5 times with one min intervals between each sonication cycle. The cell free extract was centrifuged at 10,000 rpm for 30 min at 4° C. 5 mL of Ni-NTA (Qiagen) was added to the supernatant and the mixture was gently stirred at 4° C. The slurry was passed over a column removing the resin from the lysate. The resin was then washed with 30 mL of buffer containing 100 mM sodium phosphate buffer at pH 7.2 plus 30 mM imidazole. Finally, the protein was eluted with 15 mL of 100 mM sodium phosphate buffer at pH 7.2 plus 250 mM imidazole. The protein solution was dialyzed with 200 volumes of 100 mM sodium phosphate buffer at pH 7.2. Protein concentration was determined using the Bradford assay (Biorad). 125 μg/mL of protein was obtained.
In order to assay the in vitro fatty acid substrate specificity of ORF880, potassium salts of the following fatty acids were prepared: tetradecanoic acid, hexadecanoic acid, octadecanoic acid, eicosanoic acid, and behenic acid (Sigma). The fatty acid solutions were made with 2% ethanol and 2% Tergitol solution (Sigma, St. Louis, Mo.) to a final concentration of 20 mM.
The kinetics of the decarboxylation reaction was determined using potassium octadecanoate. A 200 μL reaction was prepared with the following reactant concentrations: 1.25 μM of ORF880, 200 μM of potassium octadecanoate, […], and 100 mM sodium phosphate buffer at pH 7.2. […] Samples were analyzed using GC/MS using the alkane-1 splitless method, which is performed using the following parameters: run time: 20 min; column: HP-5-MS Part No. 19091S-433E (length of 30 meters; I.D.: 0.25 mm narrowbore; film: 0.25 μM); sample: standard ethyl acetate extraction; inject: 1 μL Agilent 6850 inlet; inlet: 300° C. splitless; carrier gas: helium; flow: 1.3 mL/min; oven temp: 100° C. hold 5 min, 320 at 20° C./min, 320 hold 5 min; det: Agilent 5975B VL MSD; det. temp: 300° C.; scan: 50-500 M/Z. Calibration curves were generated using 1-heptadecene dissolved in ethyl acetate. Based upon this analysis, the product production was determined to be linear from 5 min to 60 min. […]

ATCC 8456 cells = test: Fatty acid feeding of ATCC 8456 cells, α-olefins analyzed by GC-MS; type: cell-based, Jeotgalicoccus sp. ATCC 8456; details: fatty acid fed at 0.5 g/l (0.05%), 40-48 h at 30° C.; for α-olefin whose production increased upon fatty acid feeding: olefins not normally produced by ATCC 8456
Procedure: ATCC 8456 cells were grown in 15 mL TSBYE medium (3% Tryptic Soy Broth+0.5% Yeast Extract). Fatty acids were added to the culture medium at final concentrations of 0.5 g/l (0.05%). After growth for 40-48 h at 30° C., cells from 5 mL of culture were pelleted, resuspended in 1 mL methanol, sonicated for 30 min, and extracted with 4 mL hexane. After solvent evaporation, samples were resuspended in 0.1 mL hexane and analyzed by GC-MS.

SMILES	effect of co-factor supplementation on α-olefin synthesis ([1]; co-factor at 1 mM)	Activity (nM alkene produced/min) (ORF880)	further results
Nc1ncnc2c1ncn2[C@@H]1O[C@H](COP(=O)(O)OP(=O)(O)OP(=O)(O)O)[C@@H](O)[C@H]1O [ATP]	no increase	–	–
CC(C)(COP(=O)(O)OP(=O)(O)OC[C@H]1O[C@@H](n2cnc3c(N)ncnc32)[C@H](O)[C@@H]1OP(=O)(O)O)[C@@H](O)C(=O)NCCC(=O)NCCS [CoA]	no increase	–	–
O=C(O)CN(CCN(CC(=O)O)CC(=O)O)CC(=O)O [EDTA]	–	–	effect on α-olefin synthesis when added to the reaction mixture ([1]; 10 mM, pH 7.5): no decrease
Cc1cc2c(cc1C)N(C[C@H](O)[C@H](O)[C@H](O)COP(=O)(O)OP(=O)(O)OC[C@H]1O[C@@H](n3cnc4c(N)ncnc43)[C@H](O)[C@@H]1O)c1[nH]c(=O)[nH]c(=O)c1N2 [FADH2]	no increase	–	–
[Mg+2] [Mg^2+]	–	–	effect of co-factor supplementation on α-olefin synthesis ([1]; 10 mM concentration): no increase
NC(=O)c1ccc[n+]([C@@H]2O[C@H](COP(=O)([O-])OP(=O)(O)OC[C@H]3O[C@@H](n4cnc5c(N)ncnc54)[C@H](O)[C@@H]3O)[C@@H](O)[C@H]2O)c1 [NAD+]	no increase	–	–
NC(=O)C1=CN([C@@H]2O[C@H](COP(=O)(O)OP(=O)(O)OC[C@H]3O[C@@H](n4cnc5c(N)ncnc54)[C@H](O)[C@@H]3O)[C@@H](O)[C@H]2O)C=CC1 [NADH]	no increase	–	–
NC(=O)c1ccc[n+]([C@@H]2O[C@H](COP(=O)([O-])OP(=O)(O)OC[C@H]3O[C@@H](n4cnc5c(N)ncnc54)[C@H](OP(=O)(O)O)[C@@H]3O)[C@@H](O)[C@H]2O)c1 [NADP+]	no increase	–	–
NC(=O)C1=CN([C@@H]2O[C@H](COP(=O)(O)OP(=O)(O)OC[C@H]3O[C@@H](n4cnc5c(N)ncnc54)[C@H](OP(=O)(O)O)[C@@H]3O)[C@@H](O)[C@H]2O)C=CC1 [NADPH]	no increase	–	–
C[S+](CC[C@H](N)C(=O)[O-])C[C@H]1O[C@@H](n2cnc3c(N)ncnc32)[C@H](O)[C@@H]1O (some centres unmarked) [SAM]	no increase	–	–
CCCCCCCCCCCCCCCCCCCCCC(=O)O [behenic acid]	–	30.6 nM alkene produced/min	–
CCCCCCCCCCCCCCCCCCCC(=O)O [eicosanoic acid]	–	19.7 nM alkene produced/min	α-olefin formed from the fatty acid by cell free extract [1]: 1-nonadecene; increase in 1-nonodecene production (ATCC 8456 cells; versus no fatty acid feeding): approximately 18 fold
CCCCCCCCCCCCCCCC(=O)O [hexadecanoic acid]	–	181.9 nM alkene produced/min	α-olefin whose production increased upon fatty acid feeding (ATCC 8456 cells): 1-heptadecene
CCCCCCCCCCCCCCCCCC(=O)O [octadecanoic acid]	–	77.2 nM alkene produced/min	α-olefin formed from the fatty acid by cell free extract [1]: 1-heptadecene; α-olefin whose production increased upon fatty acid feeding (ATCC 8456 cells): 1-pentadecene
CCCCCCCCCCCCCC(=O)O [tetradecanoic acid]	–	22.9 nM alkene produced/min	–
